Residue numbers refer to the chain shown, from its start. Where two headings read alike, the source gives them in different places.
What was measured:
[1] = Irinotecan and metabolite AUC by ABCC2 3972C>T genotype in cancer patients
Source text: Sixty-four adults (48 Caucasians, 10 African-Americans, 4 Hispanics, and 2 others) with refractory solid tumors took part in the pharmacogenetic study.

[2] = target: T1, SLCO1B1*15 (N130D and V174A) (Homo sapiens, UniProt Q9Y6L6, N130D/V174A); conditions: Xenopus oocytes, among the variants examined; cited from earlier work
T1 sequence (Q9Y6L6 1-691 N130D/V174A): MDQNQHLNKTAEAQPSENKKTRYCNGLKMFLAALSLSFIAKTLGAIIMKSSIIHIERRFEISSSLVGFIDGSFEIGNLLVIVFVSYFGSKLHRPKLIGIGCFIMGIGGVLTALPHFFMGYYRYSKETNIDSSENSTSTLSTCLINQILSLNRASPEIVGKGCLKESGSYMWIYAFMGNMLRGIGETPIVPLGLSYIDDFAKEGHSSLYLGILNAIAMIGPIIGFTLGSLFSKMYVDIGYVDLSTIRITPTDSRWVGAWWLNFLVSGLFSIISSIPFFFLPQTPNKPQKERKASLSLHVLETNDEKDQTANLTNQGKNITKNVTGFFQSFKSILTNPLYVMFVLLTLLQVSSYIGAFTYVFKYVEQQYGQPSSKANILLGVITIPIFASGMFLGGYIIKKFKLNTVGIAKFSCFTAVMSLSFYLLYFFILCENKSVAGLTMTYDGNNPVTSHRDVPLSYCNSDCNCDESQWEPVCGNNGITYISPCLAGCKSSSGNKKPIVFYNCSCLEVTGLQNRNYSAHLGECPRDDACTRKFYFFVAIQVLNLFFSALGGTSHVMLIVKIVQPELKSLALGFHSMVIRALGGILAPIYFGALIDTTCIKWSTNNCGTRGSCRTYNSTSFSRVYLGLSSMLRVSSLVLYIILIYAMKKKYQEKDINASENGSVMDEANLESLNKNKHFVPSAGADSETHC

OATP1B1 = target: T2, OATP1B1 (Homo sapiens, UniProt Q9Y6L6); conditions: cited from earlier work; for transport activity by OATP1B1: OATP1B1*1a and three common variants
T2 construct: expressed in transfected cells; host or cells: HEK293 cells (stably transfected); Xenopus oocytes
T2 sequence (Q9Y6L6 1-691): T1 sequence (Q9Y6L6 1-691 N130D/V174A) with D130N, A174V

[3] = after intra peritoneal administration of irinotecan; cited from earlier work
[4] = cited from earlier work
[5] = CPT-11 pharmacokinetics by SLCO1B1*5 genotype in patients; conditions: human, in vivo, intravenous
Source text: Six SNPs in ABCC2 were genotyped [−1549G>A, −1019A>G, −24C>T, 1249G>A, intron 27 −34C>T, 3972C>T] and haplotypes were estimated. Two SNPs in SLCO1B1 [*1b (388A>G) and *5 (521T>C)] were also genotyped.

[6] = cited from earlier work; remark: listed apart in the source

CCc1c2c(nc3ccc(O)cc13)-c1cc3c(c(=O)n1C2)COC(=O)[C@]3(O)CC [SN-38, 7-ethyl-10-hydroxycamptothecin]
AUC versus ABCC2 3972C>T genotype (TT compared to CT and CC) ([1]; 350 mg/m^2 IV irinotecan, patients with 6/6 and 6/7 UGT1A1 genotype (n=54)): No significant correlation
transport activity of variant SLCO1B1*15 [2]: decreased transport activities
transport activity by OATP1B1 (OATP1B1): transport activity for SN-38 was observed
effect on SLCO1B1-mediated uptake of [(3)H]estrone-3-sulfate (OATP1B1): significant inhibitory effect
tissue accumulation of SN-38 [3]: accumulate in the intestine

CCc1c2c(nc3ccc(O[C@@H]4O[C@H](C(=O)O)[C@@H](O)[C@H](O)[C@H]4O)cc13)-c1cc3c(c(=O)n1C2)COC(=O)[C@]3(O)CC [SN-38G, 10O-glucuronyl-SN-38]
transport activity by OATP1B1 (OATP1B1): not transported

CCc1c2c(nc3ccc(OC(=O)N4CCC(NCCCCC(=O)O)CC4)cc13)-c1cc3c(c(=O)n1C2)COC(=O)[C@]3(O)CC [APC]
AUC ratio APC/irinotecan in TT patients compared to CT and CC patients ([1]; 350 mg/m^2 IV irinotecan): Higher values of AUC ratios

C[C@]12CC[C@@H]3c4ccc(OS(=O)(=O)O)cc4CC[C@H]3[C@@H]1CCC2=O [estrone-3-sulfate]
transport activity of variant SLCO1B1*15 [2]: decreased transport activities

CC[C@H](C)C(=O)O[C@H]1C[C@H](O)C=C2C=C[C@H](C)[C@H](CC[C@@H](O)C[C@@H](O)CC(=O)O)[C@H]21 [pravastatin]
transport activity of variant SLCO1B1*15 [2]: decreased transport activities
mean pravastatin AUC0-12 higher compared to non-carriers ([4]; heterozygous carriers of *15B (388A>G and 521T>C)): 93%
mean pravastatin AUC0-12 higher compared to non-carriers ([4]; heterozygous carriers of *17 (-11187G>A, 388A>G and 521T>C)): 130%
mean pravastatin AUC0-12 higher compared to reference genotype ([4]; subjects with 521TC genotype): 106%
mean pravastatin AUC0-12 higher compared to reference genotype ([4]; subjects with -11187GA genotype): 98%

CCc1c2c(nc3ccc(OC(=O)N4CCC(N5CCCCC5)CC4)cc13)-c1cc3c(c(=O)n1C2)COC(=O)[C@]3(O)CC [irinotecan]
AUC ([5]; 350 mg/m^2, patients with SLCO1B1*5 CT+CC genotype): 29500 ± 8800 ng·h/mL
AUC ([5]; 350 mg/m^2, patients with SLCO1B1*5 TT genotype): 22300 ± 5100 ng·h/mL
AUC in ABCC2 3972 TT patients compared to CT and CC patients ([1]; 350 mg/m^2 IV dose of irinotecan, 64 patients): higher AUC values
transport activity by OATP1B1 (OATP1B1): not transported
patients experiencing grade 3-4 neutropenia ([6]; both weekly and three-weekly regimens): 30-40%
patients with grade 3-4 diarrhea ([6]; early single agent trials, dose limiting): about one third
frequency of grade 3-4 diarrhea ([6]; three-weekly regimen): 19%
mortality rate ([6]; three-weekly single agent regimen): 1.6%
frequency of grade 3-4 diarrhea ([6]; weekly schedule): 36%
mortality rate ([6]; weekly single agent regimen): 5.3%
